From patent US8835447B2, “Method for treating androgen receptor positive cancers” (priority 2009, dated 2014)
“Also recorded” adds a separate entry of the source. Each block holds one molecule with its values, some of them ahead of it.

Legend:
[1] = tested on: PSA levels; settings: Phase I clinical trial, castration resistant PCa; cited from earlier work
[2] = tested on: AR-expressing PCa cell lines (LNCaP, C4-2, CWR22R); assay: Toxicity to AR-expressing PCa cell lines (colony formation / dose-dependent growth inhibition); format: cell-based, human
Description: (§1) Cell Colony Assay: Cells were plated in 24-well plates at a density allowing 6-7 days of exponential growth before confluency. Medium and compound was replaced every 48 hours to minimize the effect of potential compound instability. After 7 days of incubation in the presence of compound, cells were fixed and stained with methylene blue, followed by extraction of the stain with 1% SDS and spectrophotometry at 650 nm. Each assay was run in triplicate and the difference between control and compound-treated wells was determined using Student's t-test.
Dose-dependent inhibition of cell growth: Cells were plated at 1×10^3 cells per well in 96-well plates. Compounds were added in a dose range from 1 to 20000 nM in two-fold increments. Each dose was tested in triplicate. Controls were 0.1% DMSO (no effect on cell viability) and 50 μM 9-aminoacridine (complete cell death). Cells were incubated for 6 days and then fixed and stained with methylene blue, followed by extraction of the stain with 1% SDS and spectrophotometry at 650 nm. The assay was run two times and, based on the results, the inhibitory concentration of compound suppressing cell growth by 50% as compared to DMSO (IC50) was calculated by the sigmoid approximation method using CalcuSyn software (Biosoft, Chembridge, UK). Confidence intervals were calculated for each sigmoid.
This Example provides a description of the effect of the selected compounds on the growth of PCa cells. To test the toxicity of the identified AR inhibitors towards cells of different origins, we performed colony formation assays using a single dose of each compound (10 μM) on several PCa (LNCaP, C4-2, CWR22R and DU145) and two non-PCa (HT1080 and HeLa) cell lines (FIG. 2A). […] These compounds were not weaker inhibitors of AR transcriptional activity in CWR22R or C4-2 cells than compounds that inhibited growth of the cells. […]

[3] = Microsomal stability; format: in vitro ADME; settings: 1 hour incubation with rat microsomes
Description: Five hit compounds, representing both the ARTIS and ARTIK categories (c6, c11, c17, c52 and c85), were selected for in vivo tests based on all of the previous assays. Compound c5 was rejected due to very low microsomal stability (<5% after 1 hour incubation with rat microsomes). The toxicity of the compounds was evaluated in a dose escalation assay in which male NIH Swiss mice (n=4) received three sequential intraperitoneal (i.p.) injections of each compound delivered in 3 day intervals. The first dose was 20-fold higher than the in vitro IC50 (20×IC50) for the compound in CWR22R cells recalculated based on mouse weight (see Example 1) and the second and third doses were 50×IC50 and 100×IC50, respectively. On the day after the last injection, half of the mice in each group were sacrificed for gross pathology examination and collection of blood for serum biochemistry assays, which include total protein, glucose, bilirubin, and creatinine levels, activity of liver enzymes, and ion concentrations. The remaining mice were sacrificed and evaluated similarly 7 days after the last compound injection. […] A minor decrease in serum glucose concentration (70-80% of control) was observed on the day after the last compound injection in almost all mice, but glucose levels were normal a week later (data not shown). […]

[4] = tested on: HT1080, HeLa and DU145 cells; assay: Colony formation assay, non-PCa and AR-negative PCa cells; format: cell-based, human; settings: 10 μM, 7 days
Description: as §1
This Example provides a description of the effect of the selected compounds on the growth of PCa cells. To test the toxicity of the identified AR inhibitors towards cells of different origins, we performed colony formation assays using a single dose of each compound (10 μM) on several PCa (LNCaP, C4-2, CWR22R and DU145) and two non-PCa (HT1080 and HeLa) cell lines (FIG. 2A). […] These compounds were not weaker inhibitors of AR transcriptional activity in CWR22R or C4-2 cells than compounds that inhibited growth of the cells.

[5] = tested on: CWR22R cells; assay: Cell cycle distribution by propidium iodide staining; format: cell-based, human
Description: Analysis of cell cycle distribution was based on staining of DNA content by propidium iodide. 10^5 cells were removed from culture dishes using trypsin, washed with PBS and resuspended in 300 μl 3% BSA in PBS, followed by addition of […] 70% ethanol. Cells were kept at −20° C. for several hours and then stained with 10 μg/ml propidium iodide in the presence of 30 μg/ml RNase A for 2 hrs at 37° C. DNA content was assessed using a FACS Calibur instrument and CellQuest software (Becton Dickinson, Franklin Lakes, N.J.).
To test this possibility, we assessed the cell cycle distribution of CWR22R cells treated with both categories of compounds. […] Therefore, different subsets of compounds inhibiting AR-dependent transcription in androgen-independent PCa cells cause either growth arrest or apoptosis in these cells. Whether a compound causes growth arrest or apoptosis is not determined by the potency of the compound as an inhibitor of AR-dependent transcription (i.e., FIG. 2B).

[6] = molecular target: T1, AR LBD (Homo sapiens, UniProt P10275); settings: cited from earlier work
T1 sequence (P10275 1-920): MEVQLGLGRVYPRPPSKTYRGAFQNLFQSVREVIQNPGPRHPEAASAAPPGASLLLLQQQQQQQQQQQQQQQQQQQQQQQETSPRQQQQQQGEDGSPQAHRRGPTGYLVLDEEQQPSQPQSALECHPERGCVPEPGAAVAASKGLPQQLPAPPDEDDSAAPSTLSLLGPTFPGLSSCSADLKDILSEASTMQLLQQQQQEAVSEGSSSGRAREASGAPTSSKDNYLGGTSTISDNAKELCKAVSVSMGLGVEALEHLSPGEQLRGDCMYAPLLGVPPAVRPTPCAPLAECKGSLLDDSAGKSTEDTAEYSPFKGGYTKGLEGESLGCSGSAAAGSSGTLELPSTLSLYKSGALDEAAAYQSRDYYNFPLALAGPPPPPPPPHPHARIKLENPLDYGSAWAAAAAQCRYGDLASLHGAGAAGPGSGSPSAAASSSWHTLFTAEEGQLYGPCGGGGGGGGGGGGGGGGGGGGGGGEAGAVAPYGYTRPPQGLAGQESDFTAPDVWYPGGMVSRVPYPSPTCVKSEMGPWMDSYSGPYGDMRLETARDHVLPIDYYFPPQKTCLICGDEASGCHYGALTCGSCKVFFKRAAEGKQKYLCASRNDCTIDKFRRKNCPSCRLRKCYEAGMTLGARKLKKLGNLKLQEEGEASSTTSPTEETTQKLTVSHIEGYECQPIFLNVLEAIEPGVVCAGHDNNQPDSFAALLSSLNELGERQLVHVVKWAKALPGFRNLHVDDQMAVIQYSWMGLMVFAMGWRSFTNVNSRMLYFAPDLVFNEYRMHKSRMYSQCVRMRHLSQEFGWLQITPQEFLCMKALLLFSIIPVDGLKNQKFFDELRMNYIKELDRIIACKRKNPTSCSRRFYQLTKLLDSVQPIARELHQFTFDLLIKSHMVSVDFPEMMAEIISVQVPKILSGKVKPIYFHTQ

Compound: CNC(=O)c1ccc(N2C(=S)N(c3ccc(C#N)c(C(F)(F)F)c3)C(=O)C2(C)C)cc1F [MDV3100]
PSA levels in patients [1]: demonstrated efficacy in decreasing PSA levels

microsomal stability, compound left [3]: < 5%
Compound: O=C1N=C(Nc2cccc(Cl)c2Cl)SC1=Cc1ccco1 [c5]
toxicity towards AR-expressing PCa cell lines ([2]; colony formation, 10 μM, three AR-expressing PCa cell lines): different degrees of toxicity; also recorded: suppress growth of all | degree of toxicity to PCa cells (killing vs reduced growth) ([2]; dose-dependent toxicity, by day 7): reduced growth as compared to untreated control cells, but not obvious cell death | growth of / toxicity towards non-PCa cells or AR-negative PCa cells (DU145) [4]: no toxicity | changes in cell cycle distribution ([5]; increase in G1, decrease in S phase): cell cycle arrest | cells with sub-G1 DNA content (apoptotic) ([5]; propidium iodide FACS): did not result in appearance of cells with sub-G1 DNA content

Compound: CNC(=O)c1ccc(N2C(=S)N(c3ccc(C#N)c(C(F)(F)F)c3)C(=O)C23CCC3)cc1F [RD162]
partial agonist activity on AR [6]: not displayed | binding to the AR LBD ([6]; non-competitive antagonists): bind with high affinity to the AR LBD
